Test results: patent US20250034130A1, “Crystal Form of Tolebrutinib, Preparation Method Therefor and Use Thereof” (Principia Biopharma Inc., priority 2021, published 2025)
Entries after “also recorded” stand apart in the source; their conditions may differ. Each block holds one compound with its values, some of them ahead of it.

Assays:
Type in all cases: physicochemical
[1] = Hygroscopicity by DVS (0% RH-95% RH-0% RH at 25° C.); settings: for Weight gain at 80% RH: DVS; for Weight gain at 80% RH / Hygroscopicity class: 25° C.; for Hygroscopicity class: weight gain at 80% RH
Procedure: DVS was measured via an SMS (Surface Measurement Systems Ltd.) intrinsic DVS instrument.
Parameters for DVS method are as follows: • Temperature: 25° C. • Gas and flow rate: nitrogen, 200 mL/min • RH range: 0% RH to 95% RH • ^1H NMR were collected from a Bruker Avance II DMX 400M HZ NMR spectrometer. 1-5 mg of sample was weighed and dissolved in 0.5 mL of deuterated dimethyl sulfoxide to obtain a solution with a concentration of 2-10 mg/mL.
Certain amounts of Form CSII of the present disclosure and the prior art amorphous form were sampled for hygroscopicity tests using DVS instrument. The weight change at each relative humidity was recorded during the cycle of 0% RH-95% RH-0% RH at 25° C.
Description and definition of hygroscopicity (general notice 9103 drug hygroscopicity test guidelines in 2020 edition of Chinese Pharmacopoeia, experimental condition: 25±1° C., 80±2% RH):
Certain amounts of Form CSIII of the present disclosure and the prior art amorphous form were sampled for hygroscopicity tests using DVS instrument. The weight change at each relative humidity was recorded during the cycle of 0% RH-95% RH-0% RH at 25° C.
Certain amounts of Form CSIV of the present disclosure and the prior art amorphous form were sampled for hygroscopicity tests using DVS instrument. The weight change at each relative humidity was recorded during the cycle of 0% RH-95% RH-0% RH at 25° C.

[2] = Light stability (Chinese Pharmacopoeia method, purity by UPLC); settings: light not less than 1.2×10^6 lux-hr, near-UV not less than 200 W-hr/m^2; for Purity change: 1 week; for Chemical purity (in words): about 1 week
From the text: (§1) The related substance in the present disclosure was detected by UPLC and the parameters are shown below.
(§2) Certain amounts of Form CSII of the present disclosure and the prior art amorphous form were weighted and stored for about 1 week, in accordance with the method of the Chinese Pharmacopoeia, under the condition that the total illumination of the light source was not less than 1.2×106 lux-hr and the energy of the near-ultraviolet lamp was not less than 200 W-hr/m^2, the purities of the solids before and after storage were measured by UPLC and the results are shown in Table 5.
as §2, with “CSIII” for “CSII”, “1.2×10^6” for “1.2×106”, “12.” for “5.”
as §2, with “CSIV” for “CSII”, “1.2×10^6” for “1.2×106”, “18.” for “5.”

[3] = Stability at high temperature (80° C., 2 days, purity by UPLC); settings: for Purity change / Chemical purity (in words): 2 days; for Purity change: glass vial with cap
Procedure: as §1
Certain amounts of Form CSII of the present disclosure and the prior art amorphous form were weighted and stored at 80° C. for 2 days, and the purities of the solids before and after storage were determined by UPLC, the results are as shown in Table 4.
Certain amounts of Form CSIII of the present disclosure and the prior art amorphous form were weighted and stored at 80° C. for 2 days, and the purities of the solids before and after storage were determined by UPLC, the results are as shown in Table 11.
Certain amounts of Form CSIV of the present disclosure and the prior art amorphous form were stored at 80° C. for 2 days, and the purities of the solids before and after storage were determined by UPLC, the results are as shown in Table 17.

[4] = Physical and chemical stability on storage in opened packages (purity by UPLC, solid form by XRPD); settings: for Chemical purity after storage (in words): 60° C./75% RH (b74 also name 80° C. and light)
Procedure: X-ray powder diffraction patterns in the present disclosure were acquired by a Bruker X-ray powder diffractometer. The parameters of the X-ray powder diffraction method of the present disclosure are as follows: • X-Ray: Cu, Kα • Kα1 (Å): 1.54060; Kα2 (Å): 1.54439 • Kα2/Kα1 intensity ratio: 0.50
as §1
Said “room temperature” is not a specific temperature, but a temperature range of 10-30° C. Said “open packaged” is putting the sample into a glass vial, covering the vial with aluminum foil, and punching 5-10 holes on the foil.
(§3) Form CSII of the present disclosure and the prior art amorphous form were weighed and stored under 25° C./60% RH, 40° C./75% RH and 60° C./75% RH conditions, in opened packages, respectively. The purity and solid form were determined by UPLC and XRPD. The results are listed in Table 3, and the overlaid XRPD patterns of Form CSII before and after storage for stability evaluation are shown in FIG. 4.
as §3, with “CSIII” for “CSII”, “10,” for “3,”, “9.” for “4.”
as §3, with “CSIV” for “CSII”, “C./60%” for “C./60% RH, 40° C./75%”, “40°” for “60°”, “16,” for “3,”, “15.” for “4.”

[5] = Stability of crystalline form in tablet formulation process (XRPD before and after); settings: tablets per Table 7 and Table 8, XRPD
Procedure: According to the formulation and process in Table 7 and Table 8, the tablets were prepared with an appropriate amount of Form CSII of the present disclosure. XRPD was tested before and after formulation.
According to the formulation and process in Table 7 and Table 8, the tablets were prepared with an appropriate amount of Form CSIII of the present disclosure. XRPD was tested before and after formulation.
According to the formulation and process in Table 7 and Table 8, the tablets were prepared with an appropriate amount of Form CSIV of the present disclosure. XRPD was tested before and after formulation.

[6] = Grinding stability (manual grinding 5 minutes in a mortar, XRPD); settings: ground manually 5 minutes in a mortar
Procedure: Form CSII was grounded manually for 5 minutes in a mortar. XRPD was tested before and after the grinding.
Form CSIII was grounded manually for 5 minutes in a mortar. XRPD was tested before and after the grinding.
Form CSIV was grounded manually for 5 minutes in a mortar. XRPD was tested before and after the grinding.

[7] = 25° C./60% RH, 6 months, open package
[8] = 40° C./75% RH, 2 months, open package
[9] = 40° C./75% RH, 6 months, open package
[10] = 60° C./75% RH, 1 month, open package
[11] = Initial, ICH Q3A (R2) thresholds

Weight gain at 80% RH ([1]; 80% RH, listed as Prior art solid): 3.69%
Weight gain at 80% RH ([1]; 80% RH, listed as The prior art amorphous form): 3.69%
Weight gain at 80% RH ([1]; 80% RH, listed as prior art amorphous form): 3.69%
Weight gain at 80% RH ([1]; 80% RH, listed as prior art solid): 3.69%
Hygroscopicity class ([1]; listed as prior art amorphous form): hygroscopic
Hygroscopicity class ([1]; listed as prior art solid): hygroscopic
Purity change [2]: −0.11%
Chemical purity (in words) ([2]; listed as amorphous form): significant degradation
Purity change [3]: −1.16%
Chemical purity (in words) ([3]; listed as amorphous form): significant degradation
Purity [4, 7]: 99.57%
Purity change [4, 7]: −0.23%
Solid form [4, 7]: Amorphous
The number of the purities exceeding the qualification thresholds [4, 7]: 1
Chemical purity after storage (in words) ([4]; 25° C./60% RH, 40° C./75% RH, listed as prior art amorphous form): decreased significantly
Chemical purity after storage (in words) ([4]; 25° C./60% RH, 40° C./75% RH, listed as prior art solid): decreases significantly
Purity decrease ([4]; 40° C./75% RH, 2 months): 2.18%
Purity [4, 8]: 97.62%
Purity change [4, 8]: −2.18%
Solid form [4, 8]: Amorphous
Purity decrease ([4]; 40° C./75% RH, 6 months): 3.46%
Purity [4, 9]: 96.34%
Purity change [4, 9]: −3.46%
Solid form [4, 9]: Amorphous
The number of the purities exceeding the qualification thresholds [4, 9]: 4
The number of the purities exceeding the qualification thresholds ([4]; 40° C./75% RH, 6 months, open package, listed as prior art amorphous form): four
The number of the purities exceeding the qualification thresholds ([4]; 40° C./75% RH, 6 months, open package, listed as prior art solid): four
Purity decrease ([4]; 60° C./75% RH, 1 month): over 6.3%
Purity [4, 10]: 93.48%
Purity change [4, 10]: −6.32%
Solid form [4, 10]: Amorphous
The number of the purities exceeding the qualification thresholds [4, 10]: 4
The number of the purities exceeding the qualification thresholds ([4]; 60° C./75% RH, 1 month, open package, listed as prior art amorphous form): four
The number of the purities exceeding the qualification thresholds ([4]; 60° C./75% RH, 1 month, open package, listed as prior art solid): four
Purity ([4]; Initial): 99.80%
Solid form ([4]; Initial): Amorphous
The number of the purities exceeding the qualification thresholds [4, 11]: 1
SMILES: C=CC(=O)N1CCC[C@@H](n2c(=O)n(-c3ccc(Oc4ccccc4)cc3)c3c(N)nccc32)C1 [Amorphous, (R)-1-(1-acryloylpiperidin-3-yl)-4-amino-3-(4-phenoxyphenyl)-1H-imidazo[4,5-c] pyridin-2(3H)-one, reference compound]

Weight gain relative to that of the prior art ([1]; 80% RH): ⅙
Weight gain at 80% RH ([1]; 80% RH): 0.60%
Crystalline state after the DVS test ([1]; XRPD before and after DVS): remained unchanged
Hygroscopicity class [1]: slightly hygroscopic
Purity change [2]: −0.02%
Chemical purity (in words) [2]: basically remained unchanged
Time for which there is no change in the purity [2]: at least 1 week
Time for which chemical purity remains substantially unchanged [3]: at least 2 days
Chemical purity (in words) [3]: basically remained unchanged
Purity change [3]: +0.01%
Crystalline state after grinding [6]: remains unchanged
Chemical purity during storage ([4]; 25° C./60% RH): above 99.8%
Time for which the crystalline state doesn't change / form is stable ([4]; 25° C./60% RH): at least 6 months
Purity [4, 7]: 99.89%
Purity change [4, 7]: +0.03%
The number of the purities exceeding the qualification thresholds [4, 7]: 0
Time for which the crystalline state doesn't change / form is stable ([4]; 40° C./75% RH): at least 6 months
Chemical purity during storing ([4]; 40° C./75% RH and 60° C./75% RH): above 99.8%
Purity [4, 9]: 99.87%
Purity change [4, 9]: +0.01%
The number of the purities exceeding the qualification thresholds [4, 9]: 0
Time for which the crystalline state doesn't change ([4]; 60° C./75% RH): at least 1 month
Solid form and purity after storage ([4]; 60° C./75% RH, 1 month): remained basically unchanged
Purity [4, 10]: 99.82%
Purity change [4, 10]: −0.04%
The number of the purities exceeding the qualification thresholds [4, 10]: 0
Purity ([4]; Initial): 99.86%
The number of the purities exceeding the qualification thresholds [4, 11]: 0
SMILES: C=CC(=O)N1CCC[C@@H](n2c(=O)n(-c3ccc(Oc4ccccc4)cc3)c3c(N)nccc32)C1 [Form CSII, (R)-1-(1-acryloylpiperidin-3-yl)-4-amino-3-(4-phenoxyphenyl)-1H-imidazo[4,5-c] pyridin-2(3H)-one]
Crystalline state after formulation process (mixed with excipients, tableted) [5]: remained unchanged; also recorded: did not change
Impurity content versus qualification threshold ([4]; throughout the stability investigation processes): did not exceed the qualification thresholds; also recorded: did not exceed the qualificated threshold
